From patent US10786479B2, “Methods for inhibiting conversion of carnitine to trimethylamine (TMA)” (The Procter & Gamble Company, priority 2015, dated 2020)

Each compound was assayed against T1, Ec YeaWX lysate (Escherichia coli YeaW/YeaX) (Escherichia coli, UniProt P0ABR7) (assay: Inhibition of d9-TMA formation from d9-carnitine in Ec YeaWX lysate (LC-MS/MS)). Settings: Ec YeaWX lysate 2.0 mg/mL protein, 250 μM NADPH, 50 μM d9-carnitine chloride, 37° C. for two hours; read-out: TMA Inhibition (IC50, mol/L).
T1 construct: create a 5′ NdeI restriction site including the ATG start codon of yeaW; create a PstI restriction site just 3′ of the yeaX TAG stop codon; made in house; host or cells: E. coli BL21 (DE3), pET30a, IPTG induction; unpurified French-press lysate supernatant
T1 sequence (P0ABR7 whole entry): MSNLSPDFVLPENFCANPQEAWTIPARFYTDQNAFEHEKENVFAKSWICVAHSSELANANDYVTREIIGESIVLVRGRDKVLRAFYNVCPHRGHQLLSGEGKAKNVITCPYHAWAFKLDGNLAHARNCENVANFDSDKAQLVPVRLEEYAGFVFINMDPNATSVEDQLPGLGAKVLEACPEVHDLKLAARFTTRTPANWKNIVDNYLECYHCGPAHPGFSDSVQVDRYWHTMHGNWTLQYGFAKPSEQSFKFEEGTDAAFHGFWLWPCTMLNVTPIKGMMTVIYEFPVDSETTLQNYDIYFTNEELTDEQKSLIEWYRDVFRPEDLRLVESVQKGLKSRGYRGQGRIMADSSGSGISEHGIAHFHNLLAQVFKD
Format: biochemical
Source text: This example provides an exemplary assay for identifying and characterizing compounds that inhibit the formation of TMA from carnitine.
Escherichia coli BL21*DE3::pET30a-Ec yeaWX #1 (Ec YeaWX) strain was generated as described below. The contiguous Escherichia coli coding sequence yeaW (equivalent to uniprot ID P0ABR7.1 (YeaW) (SEQ ID NO: 2)) and yeaX (equivalent to uniprot ID P76254.1 (YeaX) (SEQ ID NO: 3)) were PCR amplified from Escherichia coli strain K-12 substr. BW25113 genomic DNA. PCR primers (YeaW_Nde_I_fwd2—SEQ ID NO: 4; YeaX_rev2—SEQ ID NO: 5) were designed to create a 5′ NdeI restriction site including the ATG start codon of yeaW and create a PstI restriction site just 3′ of the yeaX TAG stop codon.
The amplicon was restricted and cloned into the NdeI and PstI sites of the plasmid pET30a downstream of the inducible T7 promoter. A blast search of the resulting cloned amplicon DNA sequence (SEQ ID NO: 1) corresponded to nucleotide range 1884665 to 1886810 of Escherichia coli str. K-12 substr. MG1655 (NCBI Accession # NC_000913). The construct was transformed and grown in E. coli BL21 (DE3) and the recombinant yeaWX overexpressed by addition of isopropyl β-D-1-thiogalactopyranoside (IPTG).
The bacteria were grown aerobically in 50 mL LB broth (Difco #244620; 10 g/L Tryptone, 5 g/L yeast extract, 10 g/L NaCl, 50 μg/mL kanamycin), in a 500 mL Erlenmeyer flask. The cultures were inoculated from glycerol stock of BL21*DE3::pET30a-Ec yeaWX #1 strain. Strains were cultured all day at 37° C. with 250 rpm shaking. Two 300 mL Minimal M9 Medium (6 g/L Na2HPO4, 3 g/L KH2PO4, 0.5 g/L NaCl, 1 g/L NH4Cl, 0.1 mM CaCl2, 1 mM MgSO4, 0.2% Dextrose, 1 mg/L Thiamine, 50 μg/mL kanamycin), in 1 L Erlenmeyer flasks, were inoculated with 5 mL of the LB broth day culture and cultured overnight at 37° C. with 250 rpm shaking. The overnight cultures were used to inoculate twelve 1 L cultures of Minimal M9 media in 2.8 L fluted Erlenmeyer flasks to an OD 600 nm of 0.05 (typically approximately 28 mLs), which were grown at 37° C. with 250 rpm shaking until an OD600 of approximately 0.4 was reached. Expression of YeaWX was induced with 1 mM IPTG and the induced cultures were further grown overnight at 37° C. with 250 rpm shaking. The biomass was pelleted by centrifugation at 6000×g for 12 minutes at 4° C. The cell pellet was suspended in 240 mL of ice-cold 1× Phosphate Buffered Saline (Ca^2+ and Mg^2+ free). Ninety micrograms of Lysozyme (Sigma # L6876 Lot # SLBG8654V; Sigma-Aldrich Corp., St. Louis, Mo.) was added and incubated with 320 rpm shaking for 30 minutes at 4° C. Lysis was achieved via French press with a 4° C. prechilled 1″ diameter chamber at 1000 psi (high ratio; internal PSI equivalent ˜16000). The lysate was centrifuged at 6,000×g for 12 minutes at 4° C. to pellet extra debris. Glycerol was added to the centrifuged lysate supernatant at a final concentration of 15% A protein concentration of the centrifuged lysate supernatant was determined by a BCA Protein Assay Kit (Pierce #23225), typically in the 2.5 to 4.5 mg/ml range. The centrifuged Ec YeaWX lysate supernatant was aliquoted into 20 mL volumes and stored frozen at −80° C.
Ec YeaWX lysate was diluted to 2.0 mg/mL protein with 1× Dulbecco's phosphate buffered saline (DPBS) plus 15% glycerol. Nicotinamide adenine dinucleotide phosphate (NADPH) was added to 250 μM. One hundred and fifty microliters of Ec YeaWX lysate was dispensed into a deep-well plate (polypropylene, 2 mL volume, Corning Axygen catalogue # P-DW-20-C). […] The plates were agitated on a plate shaker for 1 minute. d9-carnitine chloride (1.5 μL of 5 mM) was added to all wells to reach a final d9-carnitine chloride concentration of 50 μM.
The plates were again agitated on a plate shaker for 1 minute and incubated at 37° C. for two hours. After incubation, 1.5 μL of formic acid was added to each well (final concentration=1% formic acid). The plates were agitated on a plate shaker for 1 minute and placed on ice. […]

Row | Compound | IC50
1 | S=C=NCC1CCCCC1 [Compound 8, Cyclohexylmethyl isothiocyanate] | 38.1 µM
2 | S=C=NCCc1ccc(Cl)cc1 [Compound 9, 2-(4-Chlorophenethyl) isothiocyanate] | 12.7 µM
3 | COc1ccc(N=C=S)cc1 [Compound 28, 4-Methoxyphenyl isothiocyanate] | 5.76 µM
4 | CC(C)(C)N=C=S [Compound 2, tert-Butyl isothiocyanate] | > 1000 µM
5 | CCCCCC12CCC(C(=O)Oc3ccc(N=C=S)cc3)(CC1)CC2 [Compound 37, 4-Isothiocyanatophenyl 4-pentylbicyclo[2.2.2] octane-1-carboxylate] | > 1000 µM
6 | S=C=NCc1ccccc1 [Compound 5, Benzyl isothiocyanate] | 8.37 µM
7 | Cc1cccc(N=C=S)c1 [Compound 3, m-Tolyl isothiocyanate] | 14.5 µM
8 | S=C=NC1CCCCC1 [Compound 30, Cyclohexyl isothiocyanate] | 38.8 µM
9 | COc1ccccc1N=C=S [Compound 32, 2-Methoxyphenyl isothiocyanate] | 33.3 µM
10 | CCN(CC)CCCN=C=S [Compound 7, 3-(Diethylamino)propyl isothiocyanate] | 146 µM
11 | CCc1ccc(N=C=S)cc1 [Compound 31, 4-Ethylphenyl isothiocyanate] | 17.3 µM
12 | CC(=O)O[C@H]1[C@H](OC(C)=O)[C@@H](N=C=S)OC[C@H]1OC(C)=O [Compound 39, 2,3,4-Tri-O-acetyl-α-D-arabinopyranosyl isothiocyanate] | 50.1 µM
13 | CC(C)CN=C=S [Compound 12, Isobutyl isothiocyanate] | 74.5 µM
14 | CN(C)CCN=C=S [Compound 42, 2-Isothiocyanato-N,N-dimethylethanamine] | 164 µM
15 | S=C=Nc1ccc(Br)cc1 [Compound 20, 4-Bromophenyl isothiocyanate] | 4.72 µM
16 | CCN(CC)CCN=C=S [Compound 40, Ethanamine, N,N-diethyl-2-isothiocyanato] | 320 µM
17 | CC(C)CCN=C=S [Compound 16, 1-isothiocyanato-3-methylbutane] | 75.9 µM
18 | Methyl isothiocyanate [Compound 14] | 149 µM
19 | CC(C)(C)OC(=O)NCCCCN=C=S [Compound 22, N-Boc-4-isothiocyanatobutylamine] | 17.7 µM
20 | CCCCCCN=C=S [Compound 17, Hexyl isothiocyanate] | 43.5 µM
21 | CSc1ccc(N=C=S)cc1 [Compound 4, 4-(Methylthio)phenyl isothiocyanate] | 10.8 µM

Row | Compound | IC50
22 | COc1cccc(N=C=S)c1 [Compound 34, 3-Methoxyphenyl isothiocyanate] | 9.59 µM
23 | CC(C)N=C=S [Compound 15, Isopropyl isothiocyanate] | 200 µM
24 | COc1ccc(C)cc1N=C=S [Compound 1, 2-Methoxy-5-methylphenyl isothiocyanate] | 61.6 µM
25 | S=C=NCCCN1CCOCC1 [Compound 24, 3-(4-Morpholino)propyl isothiocyanate] | 68.5 µM
26 | S=C=Nc1ccccc1 [Compound 18, Phenyl isothiocyanate] | 6.45 µM
27 | C[C@H](N=C=S)c1ccccc1 [Compound 26, (S)-(+)-alpha-Methylbenzyl isothiocyanate] | 7.34 µM
28 | CN(C)CCCN=C=S [Compound 41, 3-isothiocyanato-N,N-dimethyl-1-Propanamine] | 320 µM
29 | O=C(N=C=S)c1ccccc1 [Compound 21, Benzoyl isothiocyanate] | 138 µM
30 | CCC(C)N=C=S (stereo not drawn) [Compound 10, sec-butyl isothiocyanate] | 146 µM
31 | S=C=Nc1cccc2ccccc12 [Compound 19, 1-Naphthyl isothiocyanate] | 12.5 µM
32 | S=C=NC(c1ccccc1)c1ccccc1 [Compound 38, Benzhydryl isothiocyanate] | 3.05 µM
33 | CC(C)(C)OC(=O)Nc1ccc(N=C=S)cc1 [Compound 23, N-Boc-4-isothiocyanatoaniline] | 15.7 µM
34 | COc1ccc(OC)c(N=C=S)c1 [Compound 33, 2,5-Dimethoxyphenyl isothiocyanate] | 47.7 µM
35 | CCOC(=O)CN=C=S [Compound 36, Ethyl isothiocyanatoacetate] | 30 µM
36 | S=C=Nc1ccc(Cl)cc1 [Compound 27, 4-Chlorophenyl isothiocyanate] | 4.57 µM
37 | S=C=NCCN1CCOCC1 [Compound 25, 2-(4-Morpholino)ethyl isothiocyanate] | 69 µM
38 | CCCCN=C=S [Compound 13, Butyl isothiocyanate] | 63.6 µM
39 | CCCCCN=C=S [Compound 6, 1-pentyl isothiocyanate] | 32.2 µM
40 | S=C=NCCN1CCCCC1 [Compound 35, 2-Piperidinoethyl isothiocyanate] | 104 µM
41 | Ethyl isothiocyanate [Compound 11] | 82.2 µM
42 | S=C=N[C@@H]1C[C@H]2CC[C@@H]1C2 (relative stereo) [Compound 29, exo-2-Norbornyl-isothiocyanate] | 21.6 µM
